{
  "source": "ChEMBL document CHEMBL5608174",
  "about": "“Synthesis and biological evaluation of 4-phenyl-5-quinolinyl substituted isoxazole analogues as potent cytotoxic and tubulin polymerization inhibitors against ESCC” (Eur J Med Chem, 2024)",
  "key": {"KYSE-30 [1]": {"system": "KYSE-30", "assay": "Induction of morphological changes in human KYSE-30 cells assessed as increase in proportion of dead cells at 5 to 20 nmol/L incubated for 48 hrs by Calcein AM/PI staining based inverted fluorescence microscopic analysis", "format": "functional, cell-based", "conditions": "dose 5-20 nmol/L"}, "KYSE-70 cell line [2]": {"system": "KYSE-70 cell line", "assay": "Induction of apoptosis in human KYSE-70 cells assessed as early apoptotic cells at 5 nmol/L incubated for 48 hrs by Annexin V-FITC/PI staining based flow cytometry analysis (reference value: 1.78%)", "format": "functional"}, "KYSE-30 [3]": {"system": "KYSE-30", "assay": "Antitumor activity against human KYSE-30 cells xenografted in female BALB/c-nu nude mouse assessed as reduction in tumor volume at 6 to 12 mg/kg, ip administered daily for 15 days", "format": "functional, organism-based", "conditions": "dose 6-12 mg/kg, time 15.0 day"}, "[4]": {"assay": "Toxicity in female BALB/c-nu nude mouse xenografted with human KYSE-30 cells assessed as change in heart pathology at 6 to 12 mg/kg, ip administered for 15 days by H and E staining based analysis", "format": "organism-based", "conditions": "in vivo, 360 h, dose 6-12 mg/kg, time 15 day"}, "[5]": {"target": "Tubulin beta (Homo sapiens) (UniProt P68371+Q9H4B7+Q13509+P04350+Q3ZCM7+P07437+Q13885+Q9BVA1+Q9BUF5+A6NNZ2)", "assay": "Binding affinity to beta-tubulin colchicine binding site in human KYSE-70 cells assessed as inhibition of EBI-beta-tubulin adduct band formation at 0 to 10 micromol/L preincubated for 2 hrs followed by EBI addition measured after 2 hrs by EBI competition based Western blotting analysis", "format": "cell-based", "conditions": "dose 0-10 µmol/L, time 4.0 hrs"}, "KYSE-30 [6]": {"system": "KYSE-30", "assay": "Induction of apoptosis in human KYSE-30 cells assessed as late apoptotic cells at 10 nmol/L incubated for 48 hrs by Annexin V-FITC/PI staining based flow cytometry analysis (reference value: 5.27 %)", "format": "functional"}, "KYSE-30 [7]": {"system": "KYSE-30", "assay": "Induction of apoptosis in human KYSE-30 cells assessed as viable cells at 10 nmol/L incubated for 48 hrs by Annexin V-FITC/PI staining based flow cytometry analysis (reference value: 88.76 %)", "format": "functional", "conditions": "read-out: Activity"}, "Tubulin (Homo sapiens) [8]": {"target": "T1, Tubulin (Homo sapiens) (UniProt P68371+Q9H4B7+P0DPH7+P68366+Q13509+Q71U36+P04350+Q3ZCM7+P07437+P68363+Q9BQE3+Q6PEY2+Q13885+Q9BVA1+Q9BUF5)", "assay": "Inhibition of tubulin polymerization in human KYSE-30 cells assessed as reduction in filamentous microtubule structure formation at 5 to 20 nmol/L incubated for 24 hrs by DAPI staining based fluorescence microscopic analysis", "format": "cell-based", "conditions": "dose 5-20 nmol/L"}, "KYSE-450": {"system": "KYSE-450", "assay": "Antiproliferative activity against human KYSE-450 cells assessed as inhibition of cell growth incubated for 48 hrs by MTT assay", "format": "functional, cell-based", "conditions": "KYSE-450, 48 h"}, "KYSE-30 [9]": {"system": "KYSE-30", "assay": "Induction of apoptosis in human KYSE-30 cells assessed as late apoptotic cells at 20 nmol/L incubated for 48 hrs by Annexin V-FITC/PI staining based flow cytometry analysis (reference value: 5.27 %)", "format": "functional"}, "[10]": {"system": "Esophageal squamous cell carcinoma cell", "assay": "Induction of apoptosis in human Esophageal squamous cell carcinoma cell assessed as increase in caspase-7 activation at 5 to 20 nmol/L incubated for 48 hrs by Western blot analysis", "format": "functional, cell-based", "conditions": "dose 5-20 nmol/L"}, "KYSE-30 [11]": {"system": "KYSE-30", "assay": "Induction of apoptosis in human KYSE-30 cells assessed as early apoptotic cells at 10 nmol/L incubated for 48 hrs by Annexin V-FITC/PI staining based flow cytometry analysis (reference value: 4.38 %)", "format": "functional"}, "KYSE-30 [12]": {"system": "KYSE-30", "assay": "Effect on nuclear replication in human KYSE-30 cells at 5 to 20 nmol/L incubated for 24 hrs by DAPI staining based fluorescence microscopic analysis", "format": "functional, cell-based", "conditions": "dose 5-20 nmol/L"}, "KYSE-30 [13]": {"system": "KYSE-30", "assay": "Induction of morphological changes in human KYSE-30 cells assessed as fragmentation at 5 to 20 nmol/L incubated for 48 hrs by Bright field microscopic analysis", "format": "functional, cell-based", "conditions": "dose 5-20 nmol/L"}, "[14]": {"assay": "Toxicity in female BALB/c-nu nude mouse xenografted with human KYSE-30 cells assessed as effect on serum creatinine level at 6 to 12 mg/kg, ip administered for 15 days by biochemical analysis", "format": "organism-based", "conditions": "in vivo, 360 h, dose 6-12 mg/kg, time 15 day"}, "KYSE-70 cell line [15]": {"system": "KYSE-70 cell line", "assay": "Inhibition of human KYSE-70 cells proliferation at 5 to 20 nmol/L incubated for 48 hrs by real time cellular analysis", "format": "functional, cell-based", "conditions": "dose 5-20 nmol/L"}, "[16]": {"assay": "Cytotoxicity against HUVEC cells assessed as inhibition of cell growth incubated for 48 hrs by MTT assay", "format": "toxicity, cell-based", "conditions": "human"}, "KYSE-30 [17]": {"system": "KYSE-30", "assay": "Induction of apoptosis in human KYSE-30 cells assessed as necrotic cells at 5 nmol/L incubated for 48 hrs by Annexin V-FITC/PI staining based flow cytometry analysis (reference value: 1.59 %)", "format": "functional"}, "KYSE-30 [18]": {"system": "KYSE-30", "assay": "Induction of apoptosis in human KYSE-30 cells assessed as early apoptotic cells at 20 nmol/L incubated for 48 hrs by Annexin V-FITC/PI staining based flow cytometry analysis (reference value: 4.38 %)", "format": "functional"}, "[19]": {"system": "Esophageal squamous cell carcinoma cell", "assay": "Induction of apoptosis in human Esophageal squamous cell carcinoma cell assessed as increase in caspase-9 activation at 5 to 20 nmol/L incubated for 48 hrs by Western blot analysis", "format": "functional, cell-based", "conditions": "dose 5-20 nmol/L"}, "[20]": {"assay": "Toxicity in female BALB/c-nu nude mouse xenografted with human KYSE-30 cells assessed as change in spleen pathology at 6 to 12 mg/kg, ip administered for 15 days by H and E staining based analysis", "format": "organism-based", "conditions": "in vivo, 360 h, dose 6-12 mg/kg, time 15 day"}, "KYSE-70 cell line [21]": {"system": "KYSE-70 cell line", "assay": "Induction of apoptosis in human KYSE-70 cells assessed as late apoptotic cells at 20 nmol/L incubated for 48 hrs by Annexin V-FITC/PI staining based flow cytometry analysis (reference value: 3.01%)", "format": "functional"}, "KYSE-30 [22]": {"system": "KYSE-30", "assay": "Induction of apoptosis in human KYSE-30 cells assessed as late apoptotic cells at 5 nmol/L incubated for 48 hrs by Annexin V-FITC/PI staining based flow cytometry analysis (reference value: 5.27 %)", "format": "functional"}, "KYSE-70 cell line [23]": {"system": "KYSE-70 cell line", "assay": "Induction of cell cycle arrest in human KYSE-70 cells assessed as accumulation of cells at G2/M phase at 10 nmol/L by PI staining based flow cytometric analysis", "format": "functional"}, "[24]": {"assay": "Toxicity in female BALB/c-nu nude mouse xenografted with human KYSE-30 cells assessed as effect on serum AST level at 6 to 12 mg/kg, ip administered for 15 days by biochemical analysis", "format": "organism-based", "conditions": "in vivo, 360 h, dose 6-12 mg/kg, time 15 day"}, "KYSE-270": {"system": "KYSE-270", "assay": "Antiproliferative activity against human KYSE-270 cells assessed as inhibition of cell growth incubated for 48 hrs by MTT assay", "format": "functional, cell-based", "conditions": "KYSE-270, 48 h"}, "KYSE-30 [25]": {"system": "KYSE-30", "assay": "Induction of apoptosis in human KYSE-30 cells assessed as necrotic cells at 20 nmol/L incubated for 48 hrs by Annexin V-FITC/PI staining based flow cytometry analysis (reference value: 1.59 %)", "format": "functional"}, "Tubulin (Homo sapiens) [26]": {"target": "T1, Tubulin (Homo sapiens)", "assay": "Inhibition of tubulin polymerization in human KYSE-70 cells assessed as effect on mitotic phase at 5 to 20 nmol/L incubated for 24 hrs by DAPI staining based fluorescence microscopic analysis", "format": "cell-based", "conditions": "dose 5-20 nmol/L"}, "KYSE-30 [27]": {"system": "KYSE-30", "assay": "Inhibition of human KYSE-30 cells proliferation at 5 to 20 nmol/L incubated for 48 hrs by real time cellular analysis", "format": "functional, cell-based", "conditions": "dose 5-20 nmol/L"}, "[28]": {"assay": "Toxicity in female BALB/c-nu nude mouse xenografted with human KYSE-30 cells assessed as change in liver pathology at 6 to 12 mg/kg, ip administered for 15 days by H and E staining based analysis", "format": "organism-based", "conditions": "in vivo, 360 h, dose 6-12 mg/kg, time 15 day"}, "KYSE-30 [29]": {"system": "KYSE-30", "assay": "cells", "conditions": "Homo sapiens, KYSE-30, 48 h", "description": "Antiproliferative activity against human KYSE-30 cells assessed as inhibition of cell proliferation incubated for 48 hrs by MTT assay"}},
  "note": "The source made the active and inactive calls. The calls are words filed in the database; no cut-off is given here.",
  "data": [
    {"compound": "COc1ccc(-c2cnoc2-c2cc(C)nc3ccccc23)cc1", "values": [
      {"measurement": "Activity", "setting": "KYSE-30 [1]", "value": "Active"},
      {"measurement": "Activity", "setting": "KYSE-70 cell line [2]", "value": 8.24, "unit": "%"},
      {"measurement": "Activity", "setting": "KYSE-30 [3]", "value": "Active"},
      {"measurement": "Activity", "setting": "[4]", "value": "Non-Toxic"},
      {"measurement": "Activity", "setting": "[5]", "value": "Active"},
      {"measurement": "Activity", "setting": "KYSE-30 [6]", "value": 11.91, "unit": "%"},
      {"measurement": "viability at 0.01 µM", "setting": "KYSE-30 [7]", "value": 37.5, "unit": "%"},
      {"measurement": "inhibition", "setting": "Tubulin (Homo sapiens) [8]", "value": "Active"},
      {"measurement": "IC50", "setting": "KYSE-450", "value": 19.2, "unit": "nM"},
      {"measurement": "Activity", "setting": "KYSE-30 [9]", "value": 10.13, "unit": "%"},
      {"measurement": "Activity", "setting": "[10]", "value": "Active"},
      {"measurement": "Activity", "setting": "KYSE-30 [11]", "value": 47.75, "unit": "%"},
      {"measurement": "Activity", "setting": "KYSE-30 [12]", "value": "inactive"},
      {"measurement": "Activity", "setting": "KYSE-30 [13]", "value": "Active"},
      {"measurement": "Activity", "setting": "[14]", "value": "Non-Toxic"},
      {"measurement": "inhibition", "setting": "KYSE-70 cell line [15]", "value": "Active"},
      {"measurement": "IC50 at 48 h", "setting": "[16]", "value": "> 710", "unit": "nM"},
      {"measurement": "Activity", "setting": "KYSE-30 [17]", "value": 2.61, "unit": "%"},
      {"measurement": "Activity", "setting": "KYSE-30 [18]", "value": 47.76, "unit": "%"},
      {"measurement": "Activity", "setting": "[19]", "value": "Active"},
      {"measurement": "Activity", "setting": "[20]", "value": "Non-Toxic"},
      {"measurement": "Activity", "setting": "KYSE-70 cell line [21]", "value": 17.48, "unit": "%"},
      {"measurement": "Activity", "setting": "KYSE-30 [22]", "value": 11.99, "unit": "%"},
      {"measurement": "Activity", "setting": "KYSE-70 cell line [23]", "value": "Active"},
      {"measurement": "Activity", "setting": "[24]", "value": "Non-Toxic"},
      {"measurement": "IC50", "setting": "KYSE-270", "value": 41.8, "unit": "nM"},
      {"measurement": "Activity", "setting": "KYSE-30 [25]", "value": 3.2, "unit": "%"},
      {"measurement": "inhibition", "setting": "Tubulin (Homo sapiens) [26]", "value": "Active"},
      {"measurement": "inhibition", "setting": "KYSE-30 [27]", "value": "Active"},
      {"measurement": "Activity", "setting": "[28]", "value": "Non-Toxic"},
      {"measurement": "IC50", "setting": "KYSE-30 [29]", "value": 13, "unit": "nM"}
    ]}
  ]
}
